Measurements taken from patent US11084821B2 (MISSION THERAPEUTICS LIMITED, priority 2016, dated 2021).

Target: USP30 (Homo sapiens (Human), UniProt Q70CQ3)
Experiment: USP30 Biochemical IC50 Assay
Conditions: fluorescence polarisation, TAMRA labelled peptide linked to ubiquitin; enzyme and compound incubated 30 min; read after 2 h at room temperature; read-out: IC50 range
Description: USP30 Biochemical IC50 Assay
Dilution plates were prepared at 21 times the final concentration (2100 μM for a final concentration of 100 μM) in 50% DMSO in a 96-well polypropylene V-bottom plate (Greiner #651201). A typical 8-point dilution series would be 100, 30, 10, 3, 1, 0.3, 0.1, 0.03 μM final. Reactions were performed in duplicate in black 384 well plates (small volume, Greiner 784076) in a final reaction volume of 21 μl. Either 1 μl of 50% DMSO or diluted compound was added to the plate. USP30 was diluted in reaction buffer (40 mM Tris, pH 7.5, 0.005% Tween 20, 0.5 mg/ml BSA, 5 mM beta-mercaptoethanol) to the equivalent of 0.05 μl/well and 10 μl of diluted USP30 was added to the compound. Enzyme and compound were incubated for 30 min at room temp. Reactions were initiated by the addition of 50 nM of TAMRA labelled peptide linked to ubiquitin via an iso-peptide bond as fluorescence polarisation substrate. Reactions were read immediately after addition of substrate and following a 2 h incubation at room temperature. Readings were performed on a Pherastar Plus (BMG Labtech). Excitation 540 nm; Emission 590 nm.

Sequence of USP30 (Q70CQ3 57-517): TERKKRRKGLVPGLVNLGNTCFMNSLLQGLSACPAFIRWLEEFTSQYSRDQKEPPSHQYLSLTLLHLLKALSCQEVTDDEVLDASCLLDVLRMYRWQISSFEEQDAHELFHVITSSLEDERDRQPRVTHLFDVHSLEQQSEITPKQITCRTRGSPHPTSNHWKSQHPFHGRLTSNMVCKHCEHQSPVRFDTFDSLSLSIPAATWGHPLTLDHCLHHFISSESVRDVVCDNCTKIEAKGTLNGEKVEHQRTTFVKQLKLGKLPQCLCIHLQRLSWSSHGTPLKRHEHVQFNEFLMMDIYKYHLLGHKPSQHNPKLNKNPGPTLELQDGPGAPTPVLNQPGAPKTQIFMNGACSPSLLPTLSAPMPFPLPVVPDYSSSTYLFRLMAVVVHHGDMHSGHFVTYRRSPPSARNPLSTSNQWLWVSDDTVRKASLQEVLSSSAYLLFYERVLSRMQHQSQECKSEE

Compound	IC50
N#Cc1cc(-c2ccc(N3CCO[C@H]4CN(C#N)C[C@H]43)nc2)ccn1 (single isomer, unassigned) [Example 20, cis-4-(2′-Cyano-[3,4′-bipyridin]-6-yl)hexahydropyrrolo[3,4-b][1,4]oxazine-6(2H)-carbonitrile]	10 to 100 nM
N#CN1C[C@@H]2OCCN(c3ccc(-c4ccccc4)cn3)[C@@H]2C1 (relative stereo) [Example 5, cis-4-(5-Phenylpyridin-2-yl)hexahydropyrrolo[3,4-b][1,4]oxazine-6(2H)-carbonitrile]	100 to 1000 nM
N#Cc1ccnc(-c2ccc(N3CCO[C@@H]4CN(C#N)C[C@@H]43)nc2)c1 (racemic) [Example 26, rac-(4aR,7aS)-4-(4-Cyano-[2,3′-bipyridin]-6′-yl)hexahydropyrrolo[3,4-b][1,4]oxazine-6(2H)-carbonitrile]	1 to 10 nM
N#Cc1cc(-c2ccc(N3CCO[C@H]4CN(C#N)C[C@H]43)nc2)ccn1 (single isomer, unassigned) [Example 19, cis-4-(2′-Cyano-[3,4′-bipyridin]-6-yl)hexahydropyrrolo[3,4-b][1,4]oxazine-6(2H)-carbonitrile]	1 to 10 nM
N#CN1C[C@@H]2OCCN(c3cccc(-c4ccccc4)n3)[C@@H]2C1 (relative stereo) [Example 6, cis-4-(6-Phenylpyridin-2-yl)hexahydropyrrolo[3,4-b][1,4]oxazine-6(2H)-carbonitrile]	100 to 1000 nM
CN(c1ccc(-c2ccccc2)cn1)C1CCN(C#N)C1 (centres unmarked) [Example 14, 3-(Methyl(5-phenylpyridin-2-yl)amino)pyrrolidine-1-carbonitrile]	1000 to 10000 nM
N#CN1C[C@@H]2OCCN(c3nccc(-c4ccccc4)n3)[C@@H]2C1 (relative stereo) [Example 7, cis-4-(4-Phenylpyrimidin-2-yl)hexahydropyrrolo[3,4-b][1,4]oxazine-6(2H)-carbonitrile]	100 to 1000 nM
N#Cc1cccc(-c2cnc(N3CCO[C@@H]4CN(C#N)C[C@@H]43)cn2)c1 (racemic) [Example 25, rac-(4aR,7aS)-4-(5-(3-Cyanophenyl)pyrazin-2-yl)hexahydropyrrolo[3,4-b][1,4]oxazine-6(2H)-carbonitrile]	1 to 10 nM
N#Cc1cc(-c2ccc(N3CCO[C@H]4CN(C#N)C[C@H]43)nn2)ccn1 (single isomer, unassigned) [Example 22, cis-4-(6-(2-Cyanopyridin-4-yl)pyridazin-3-yl)hexahydropyrrolo[3,4-b][1,4]oxazine-6(2H)-carbonitrile]	10 to 100 nM
N#Cc1ccc2nc(N3CC[C@@H]4CN(C#N)C[C@@H]43)[nH]c2c1 [Example 16, 2-((3aR,6aR)-5-Cyanohexahydropyrrolo[3,4-b]pyrrol-1(2H)-yl)-1H-benzo[d]imidazole-6-carbonitrile]	100 to 1000 nM
CN(c1nc2ccc(C(F)(F)F)cc2[nH]1)[C@@H]1CCN(C#N)C1 [Example 18, (R)-3-(Methyl(6-(trifluoromethyl)-1H-benzo[d]imidazol-2-yl)amino)pyrrolidine-1-carbonitrile]	100 to 1000 nM
N#CN1CC2CCN(c3ccccc3)C2C1 (centres unmarked) [Example 1, 1-Phenylhexahydropyrrolo[3,4-b]pyrrole-5(1H)-carbonitrile]	1000 to 10000 nM
N#CN1C[C@@H]2OCCN(c3ncc(-c4ccccc4)s3)[C@H]2C1 (relative stereo) [Example 10, trans-4-(5-Phenylthiazol-2-yl)hexahydropyrrolo[3,4-b][1,4]oxazine-6(2H)-carbonitrile]	100 to 1000 nM
N#CN1CC2CCCN(c3ncc(-c4ccccc4)s3)C2C1 (centres unmarked) [Example 11, 1-(5-Phenylthiazol-2-yl)octahydro-6H-pyrrolo[3,4-b]pyridine-6-carbonitrile]	1000 to 10000 nM
N#Cc1cccc(-c2ccc(N3CCO[C@@H]4CN(C#N)C[C@@H]43)nc2)n1 (racemic) [Example 27]	10 to 100 nM
N#CN1C[C@H]2CCN(c3nc4ccc(OC(F)(F)F)cc4[nH]3)[C@H]2C1 [Example 15, (3aR,6aR)-1-(6-(Trifluoromethoxy)-1H-benzo[d]imidazol-2-yl)hexahydropyrrolo[3,4-b]pyrrole-5(1H)-carbonitrile]	10 to 100 nM
N#CN1C[C@H]2CCN(c3ncc(-c4ccccc4)s3)[C@H]2C1 (relative stereo) [Example 8, cis-1-(5-Phenylthiazol-2-yl)hexahydropyrrolo[3,4-b]pyrrole-5(1H)-carbonitrile]	100 to 1000 nM
CN(c1ncc(-c2ccccc2)s1)C1CCN(C#N)C1 (centres unmarked) [Example 13, 3-(Methyl(5-phenylthiazol-2-yl)amino)pyrrolidine-1-carbonitrile]	1000 to 10000 nM
N#CN1C[C@H]2OCCN(c3ccc(-c4ccccc4)nn3)[C@H]2C1 (relative stereo) [Example 2, cis-4-(6-Phenylpyridazin-3-yl)hexahydropyrrolo[3,4-b][1,4]oxazine-6(2H)-carbonitrile]	100 to 1000 nM
N#Cc1cc(-c2ccc(N3CCO[C@H]4CN(C#N)C[C@H]43)nn2)ccn1 (single isomer, unassigned) [Example 21, cis-4-(6-(2-Cyanopyridin-4-yl)pyridazin-3-yl)hexahydropyrrolo[3,4-b][1,4]oxazine-6(2H)-carbonitrile]	100 to 1000 nM
N#Cc1cccc(-c2cccnc2N2CCO[C@H]3CN(C#N)C[C@H]32)c1 (racemic) [Example 23, rac-(4aR,7aS)-4-(5-(3-Cyanophenyl)pyridin-6-yl)hexahydropyrrolo[3,4-b][1,4]oxazine-6(2H)-carbonitrile]	1 to 10 nM
COc1ccc2nc(N3CC[C@@H]4CN(C#N)C[C@@H]43)[nH]c2c1 [Example 17, (3aR,6aR)-1-(6-Methoxy-1H-benzo[d]imidazol-2-yl)hexahydropyrrolo[3,4-b]pyrrole-5(1H)-carbonitrile]	100 to 1000 nM
N#CN1C[C@@H]2OCCN(c3cc(-c4ccccc4)ccn3)[C@@H]2C1 (relative stereo) [Example 4, cis-4-(4-Phenylpyridin-2-yl)hexahydropyrrolo[3,4-b][1,4]oxazine-6(2H)-carbonitrile]	1000 to 10000 nM
N#Cc1cccc(-c2cnc(N3CCO[C@@H]4CN(C#N)C[C@@H]43)nc2)c1 (racemic) [Example 24, rac-(4aR,7aS)-4-(5-(3-Cyanophenyl)pyrimidin-2-yl)hexahydropyrrolo[3,4-b][1,4]oxazine-6(2H)-carbonitrile]	1 to 10 nM
N#CN1C[C@@H]2OCCN(c3nc4ccc(F)cc4s3)[C@@H]2C1 (relative stereo) [Example 3, cis-4-(6-Fluorobenzo[d]thiazol-2-yl)hexahydropyrrolo[3,4-b][1,4]oxazine-6(2H)-carbonitrile]	1000 to 10000 nM
N#CN1C[C@H]2OCCN(c3ncc(-c4ccccc4)s3)[C@H]2C1 (relative stereo) [Example 9, cis-4-(5-Phenylthiazol-2-yl)hexahydropyrrolo[3,4-b][1,4]oxazine-6(2H)-carbonitrile]	100 to 1000 nM
